“And” between values parts separate entries of the source, which are not always exact repeats. Equal values may be shown once. Inconclusive results and toxic doses are left out. The calls were made as follows: active = survival T/C of 150% or more; inactive = T/C below 125% in these data.
System: P388 leukemia ip, CD2F1 mice, survival T/C
Test: NCI In Vivo Anticancer Drug Screen. Data for tumor model P388 Leukemia (intraperitoneal) in CD2F1 (CDF1) mice
Details: endpoint: median survival time, higher = longer survival
Outline: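 Mice carrying the transplanted tumor received test compound or vehicle. Survival was recorded in each group, and the value is the treated-group measurement divided by that of the vehicle-treated control group.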

[1] = dose: 50.0 mg/kg/injection, schedule: Q01DX005 (ip), vehicle: Klucel (hydroxypropylcellulose) (HPC)
[2] = dose: 100.0 mg/kg/injection, schedule: Q01DX005 (ip), vehicle: Klucel (hydroxypropylcellulose) (HPC)
[3] = dose: 200.0 mg/kg/injection, schedule: Q01DX005 (ip), vehicle: Klucel (hydroxypropylcellulose) (HPC)
[4] = dose: 50.0 mg/kg/injection, schedule: Q01DX009 (ip), vehicle: saline with Tween-80
[5] = dose: 100.0 mg/kg/injection, schedule: Q01DX009 (ip), vehicle: saline with Tween-80
[6] = dose: 60.0 mg/kg/injection, schedule: Q01DX005 (ip), vehicle: Klucel (hydroxypropylcellulose) (HPC)
[7] = dose: 60.0 mg/kg/injection, schedule: Q01DX005 (ip), vehicle: saline with Tween-80
[8] = dose: 200.0 mg/kg/injection, schedule: Q01DX005 (ip), vehicle: saline with Tween-80

Measured: T/C

O=c1[nH]cnc2nc(Cl)[nH]c12
inactive: [1] 98 % of control | [2] 98 % of control | [3] 95 % of control

CCOC(=O)c1cccc(C(=O)OCC)c1
inactive: [4] 99 % of control | [5] 106 % of control | dose: 200.0 mg/kg/injection, schedule: Q01DX009 (ip), vehicle: saline with Tween-80 108 % of control

O=C1CP(=O)(O)CC2=C1CCC2
inactive: dose: 25.0 mg/kg/injection, schedule: Q01DX009 (ip), vehicle: saline 96 % of control | dose: 50.0 mg/kg/injection, schedule: Q01DX009 (ip), vehicle: saline 96 % of control | dose: 100.0 mg/kg/injection, schedule: Q01DX009 (ip), vehicle: saline 100 % of control

C=C(C)[C@H]1O[C@H]2CC[C@@]3(C)[C@@](O)(CC[C@H]4[C@@H]5OC(C)(C)[C@H]6C[C@@H]7C(=C)Cc8c(Cl)cc9[nH]c(c5c9c8C76O)[C@@]43C)[C@@]23O[C@H]3[C@H]1O (some centres undefined)
inactive: dose: 0.5 mg/kg/injection, schedule: Q01DX005 (ip), vehicle: Klucel (hydroxypropylcellulose) (HPC) 101 % of control | dose: 1.0 mg/kg/injection, schedule: Q01DX005 (ip), vehicle: Klucel (hydroxypropylcellulose) (HPC) 97 % of control | dose: 2.0 mg/kg/injection, schedule: Q01DX005 (ip), vehicle: Klucel (hydroxypropylcellulose) (HPC) 87 % of control | dose: 3.75 mg/kg/injection, schedule: Q01DX005 (ip), vehicle: Klucel (hydroxypropylcellulose) (HPC) 107 % of control | dose: 4.0 mg/kg/injection, schedule: Q01DX005 (ip), vehicle: Klucel (hydroxypropylcellulose) (HPC) 93 % of control | dose: 7.5 mg/kg/injection, schedule: Q01DX005 (ip), vehicle: Klucel (hydroxypropylcellulose) (HPC) 115 % of control | dose: 15.0 mg/kg/injection, schedule: Q01DX005 (ip), vehicle: Klucel (hydroxypropylcellulose) (HPC) 106 % of control | dose: 30.0 mg/kg/injection, schedule: Q01DX005 (ip), vehicle: Klucel (hydroxypropylcellulose) (HPC) 107 % of control | [6] 107 % of control

Cc1c([O-])on[n+]1Cc1ccccc1
inactive: [7] 102 % of control

COC1/C=C\C=C(/C)C(=O)NC2=CC(=O)C(N)=C(CC(C)CC(OC)C(O)C(C)C=C(C)C1OC(N)=O)C2=O (centres undefined)
inactive: dose: 0.75 mg/kg/injection, schedule: Q01DX009 (ip), vehicle: saline with Tween-80 103 % of control | dose: 1.5 mg/kg/injection, schedule: Q01DX009 (ip), vehicle: saline with Tween-80 105 % of control | dose: 3.0 mg/kg/injection, schedule: Q01DX009 (ip), vehicle: saline with Tween-80 111 % of control | dose: 6.0 mg/kg/injection, schedule: Q01DX009 (ip), vehicle: saline with Tween-80 87 % of control

O=C1CCCOCCCOCCCOCCCOCCCOCCC1
inactive: dose: 50.0 mg/kg/injection, schedule: Q01DX005 (ip), vehicle: saline with Tween-80 103 % of control | dose: 100.0 mg/kg/injection, schedule: Q01DX005 (ip), vehicle: saline with Tween-80 100 % of control | [8] 100 % of control

C=C1C(=O)OC2CC3(C)CCCC(C)C3=CC12 (centres undefined)
inactive: dose: 12.5 mg/kg/injection, schedule: Q01DX009 (ip), vehicle: Klucel (hydroxypropylcellulose) (HPC) 100 % of control | dose: 25.0 mg/kg/injection, schedule: Q01DX009 (ip), vehicle: Klucel (hydroxypropylcellulose) (HPC) 96 % of control | dose: 50.0 mg/kg/injection, schedule: Q01DX009 (ip), vehicle: Klucel (hydroxypropylcellulose) (HPC) 101 % of control | dose: 100.0 mg/kg/injection, schedule: Q01DX009 (ip), vehicle: Klucel (hydroxypropylcellulose) (HPC) 100 % of control

O=C1c2cc3c(-c4ccccc4)oc(-c4ccccc4)c3cc2C(=O)c2c(O)ccc(O)c21
inactive: dose: 6.25 mg/kg/injection, schedule: Q01DX005 (ip), vehicle: saline with Tween-80 94 % of control | dose: 12.5 mg/kg/injection, schedule: Q01DX005 (ip), vehicle: saline with Tween-80 94 % of control | dose: 25.0 mg/kg/injection, schedule: Q01DX005 (ip), vehicle: saline with Tween-80 94 % of control | [8] 99 % of control

Nc1nc2nc(-c3ccccc3)nc(N)c2nc1C(=O)NN1CCCCC1
inactive: dose: 37.5 mg/kg/injection, schedule: Q01DX009 (ip), vehicle: saline with Tween-80 100 % of control | dose: 75.0 mg/kg/injection, schedule: Q01DX009 (ip), vehicle: saline with Tween-80 87 % of control | dose: 150.0 mg/kg/injection, schedule: Q01DX009 (ip), vehicle: saline with Tween-80 100 % of control

NC(=O)N/N=C1\CCC2CCCCC2C1 (centres undefined)
inactive: dose: 25.0 mg/kg/injection, schedule: Q01DX001 (ip), vehicle: Klucel (hydroxypropylcellulose) (HPC) 107 % of control | dose: 50.0 mg/kg/injection, schedule: Q01DX001 (ip), vehicle: Klucel (hydroxypropylcellulose) (HPC) 101 % of control | dose: 100.0 mg/kg/injection, schedule: Q01DX001 (ip), vehicle: Klucel (hydroxypropylcellulose) (HPC) 100 % of control

C=C1C(=O)O[C@@H]2C[C@@H](C)[C@@H]3C=CC(=O)[C@@]3(C)[C@@H](OC(=O)CCCC(=O)O[C@H]3[C@@H]4C(=C)C(=O)O[C@@H]4C[C@@H](C)[C@@H]4C=CC(=O)[C@]43C)[C@H]12
inactive: dose: 0.39 mg/kg/injection, schedule: Q01DX005 (ip), vehicle: Klucel (hydroxypropylcellulose) (HPC) 101 % of control | dose: 0.78 mg/kg/injection, schedule: Q01DX005 (ip), vehicle: Klucel (hydroxypropylcellulose) (HPC) 100 % of control | dose: 1.56 mg/kg/injection, schedule: Q01DX005 (ip), vehicle: Klucel (hydroxypropylcellulose) (HPC) 103 % of control and 118 % of control | dose: 3.12 mg/kg/injection, schedule: Q01DX005 (ip), vehicle: Klucel (hydroxypropylcellulose) (HPC) 116 % of control | dose: 6.25 mg/kg/injection, schedule: Q01DX005 (ip), vehicle: Klucel (hydroxypropylcellulose) (HPC) 109 % of control

COc1cccc(CN2CCN(/N=C/c3c4c(O)c5c(O)c(C)c6c(c5c3O)C(=O)C(C)(O/C=C/C(OC)C(C)C(OC(C)=O)C(C)C(O)C(C)C(O)C(C)/C=C/C=C(C)C(=O)N4)O6)CC2)c1 (centres undefined)
inactive: dose: 12.5 mg/kg/injection, schedule: Q01DX009 (ip), vehicle: saline with Tween-80 120 % of control | dose: 25.0 mg/kg/injection, schedule: Q01DX009 (ip), vehicle: saline with Tween-80 118 % of control | [4] 112 % of control and 117 % of control | [5] 121 % of control

COc1cc(OC)c(C(=O)/C=C/c2ccncc2)cc1C(=O)O
inactive: dose: 50.0 mg/kg/injection, schedule: Q01DX009 (ip), vehicle: suspension in saline 114 % of control and 119 % of control | dose: 100.0 mg/kg/injection, schedule: Q01DX009 (ip), vehicle: suspension in saline 123 % of control and 124 % of control

Nc1ncnc2c1ncn2C1(CO)OCC(O)C(O)C1O (centres undefined)
inactive: [1] 101 % of control | [2] 100 % of control | [3] 101 % of control

COc1cc(C2c3cc4c(cc3OC(C)(OC)C2C(C)=O)OCO4)cc(OC)c1OC (centres undefined)
inactive: [7] 90 % of control | dose: 120.0 mg/kg/injection, schedule: Q01DX005 (ip), vehicle: saline with Tween-80 94 % of control | dose: 240.0 mg/kg/injection, schedule: Q01DX005 (ip), vehicle: saline with Tween-80 95 % of control

CC1OC(OC2C(Oc3cc(O)c4c(=O)cc(-c5ccc(OC6OC(CO)C(O)C(O)C6OC6OC(C)C(O)C(O)C6O)c(O)c5)oc4c3)OC(CO)C(O)C2O)C(O)C(O)C1O (centres undefined)
inactive: dose: 3.0 mg/kg/injection, schedule: Q01DX009 (ip), vehicle: Klucel (hydroxypropylcellulose) (HPC) 106 % of control | dose: 6.0 mg/kg/injection, schedule: Q01DX009 (ip), vehicle: Klucel (hydroxypropylcellulose) (HPC) 95 % of control | dose: 12.0 mg/kg/injection, schedule: Q01DX009 (ip), vehicle: Klucel (hydroxypropylcellulose) (HPC) 93 % of control | dose: 24.0 mg/kg/injection, schedule: Q01DX009 (ip), vehicle: Klucel (hydroxypropylcellulose) (HPC) 95 % of control

Cc1ccc(N=CNN(C)S(=O)(=O)c2ccc(C)cc2)cc1
inactive: [6] 92 % of control | dose: 120.0 mg/kg/injection, schedule: Q01DX005 (ip), vehicle: Klucel (hydroxypropylcellulose) (HPC) 108 % of control | dose: 240.0 mg/kg/injection, schedule: Q01DX005 (ip), vehicle: Klucel (hydroxypropylcellulose) (HPC) 90 % of control

From PubChem BioAssay AID330 (DTP/NCI, 2004)
